According to patent US20200237742A1, “Serdexmethylphenidate Conjugates, Compositions And Methods Of Use Thereof” (priority 2018, published 2020):

Assays:
[1] = Intravenous pharmacokinetic study (KP415.A03) in recreational stimulant users; settings: human, in vivo, iv
Protocol: A study was conducted in humans to assess the intravenous abuse potential of serdexmethylphenidate relative to unconjugated d-methylphenidate and placebo in recreational stimulant abusers. This was a Phase 1, randomized, double-blind study in which serdexmethylphenidate and d-methylphenidate were administered intravenously in recreational stimulant users with a history of non-oral abuse. In Part A of the study, subjects (Cohort 1) participated in a dose-escalation phase to determine the optimal dose of intravenous d-methylphenidate based on tolerability and abuse-related pharmacodynamic assessments. […] The doses of serdexmethylphenidate and d-methylphenidate are equivalent with respect to molar amount of d-methylphenidate. FDA-recommended abuse potential measures and blood samples were collected at different times after dosing. Safety assessments were performed throughout the study.

[2] = system: healthy, nondependent, recreational stimulant users; test: Oral abuse potential study, VAS pharmacodynamic assessments; settings: for Mean Difference Any Effects Emax, B vs E / Mean Difference Bad Effects Emax, B vs E / Mean Difference Feeling Alert/Drowsy Emax, B vs E / Mean Difference Feeling High Emax, B vs E / Mean Difference Good Effects Emax, B vs E / Mean Difference Overall Drug Liking Emax, B vs E / Mean Difference Take Drug Again Emax, B vs E / Mean Difference Drug Liking Emax, B vs E: SDX Cl 240 mg vs placebo
[3] = Focalin XR 80 mg vs SDX Cl 120 mg
[4] = Focalin XR 80 mg vs SDX Cl 240 mg
[5] = SDX Cl 120 mg vs placebo, listed as SDX chloride
[6] = phentermine HCl 60 mg vs SDX Cl 120 mg
[7] = phentermine HCl 60 mg vs SDX Cl 240 mg
[8] = phentermine HCl 60 mg vs SDX Cl 240 mg, listed as SDX chloride

COC(=O)[C@H](c1ccccc1)[C@H]1CCCCN1C(=O)OC[n+]1cccc(C(=O)N[C@@H](CO)C(=O)O)c1.[Cl-] [serdexmethylphenidate chloride]
AUCinf [1]: 31.0 | AUCinf, GLSM [1]: 28.9 ng·h/mL | AUCinf, GLSM Ratio A/B [1]: 12.2% | AUClast [1]: 25.7 | AUClast, GLSM [1]: 23.8 ng·h/mL | AUClast, GLSM Ratio A/B [1]: 10.2% | Cmax [1]: 12.9 ng/mL | Cmax, GLSM [1]: 12.1 ng/mL | Cmax, GLSM Ratio A/B [1]: 20.8% | T1/2 [1]: 8.23 h | Tmax [1]: 5.93 min | Mean Difference Any Effects Emax, C vs A [2, 3]: statistically lower | Mean Difference Bad Effects Emax, C vs A [2, 3]: statistically lower | Mean Difference Feeling Alert/Drowsy Emax, C vs A [2, 3]: statistically lower | Mean Difference Feeling High Emax, C vs A [2, 3]: statistically lower | Mean Difference Good Effects Emax, C vs A [2, 3]: statistically lower | Mean Difference Overall Drug Liking Emax, C vs A [2, 3]: about 4.5 | Mean Difference Take Drug Again Emax, C vs A [2, 3]: not statistically significant | Mean Difference Overall Drug Liking Emax, C vs A ([2]; Focalin XR 80 mg vs SDX Cl 120 mg, listed as SDX chloride): not statistically significant | Mean Difference Drug Liking Emax, C vs A ([2]; Focalin XR 80 mg vs SDX Cl 120 mg, margin 10): at least 18.2 | Mean Difference Drug Liking Emax, C vs A ([2]; Focalin XR 80 mg vs SDX Cl 120 mg, margin 10, listed as SDX chloride): statistically significantly lower | Mean Difference Any Effects Emax, C vs B [2, 4]: statistically lower | Mean Difference Bad Effects Emax, C vs B [2, 4]: statistically lower | Mean Difference Feeling Alert/Drowsy Emax, C vs B [2, 4]: statistically lower | Mean Difference Feeling High Emax, C vs B [2, 4]: statistically lower | Mean Difference Good Effects Emax, C vs B [2, 4]: statistically lower | Mean Difference Overall Drug Liking Emax, C vs B [2, 4]: about 5.0 | Mean Difference Take Drug Again Emax, C vs B [2, 4]: not statistically significant | Mean Difference Overall Drug Liking Emax, C vs B ([2]; Focalin XR 80 mg vs SDX Cl 240 mg, listed as SDX chloride): not statistically significant | Mean Difference Drug Liking Emax, C vs B ([2]; Focalin XR 80 mg vs SDX Cl 240 mg, margin 10): at least 16.7 | Mean Difference Drug Liking Emax, C vs B ([2]; Focalin XR 80 mg vs SDX Cl 240 mg, margin 10, listed as SDX chloride): statistically significantly lower | Mean Difference Any Effects Emax, A vs E ([2]; SDX Cl 120 mg vs placebo): 11.0 | Mean Difference Bad Effects Emax, A vs E ([2]; SDX Cl 120 mg vs placebo): 1.3 | Mean Difference Feeling Alert/Drowsy Emax, A vs E ([2]; SDX Cl 120 mg vs placebo): 7.7 | Mean Difference Feeling High Emax, A vs E ([2]; SDX Cl 120 mg vs placebo): 10.4 | Mean Difference Good Effects Emax, A vs E ([2]; SDX Cl 120 mg vs placebo): 12.1 | Mean Difference Overall Drug Liking Emax, A vs E ([2]; SDX Cl 120 mg vs placebo): 3.8 | Mean Difference Take Drug Again Emax, A vs E ([2]; SDX Cl 120 mg vs placebo): 2.2 | Mean Difference Bad Effects Emax, A vs E [2, 5]: not statistically different | Mean Difference Feeling Alert/Drowsy Emax, A vs E [2, 5]: statistically higher | Mean Difference Good Effects Emax, A vs E [2, 5]: statistically higher | Mean Difference Overall Drug Liking Emax, A vs E [2, 5]: not statistically different | Mean Difference Take Drug Again Emax, A vs E [2, 5]: not statistically different | Mean Difference Drug Liking Emax, A vs E ([2]; SDX Cl 120 mg vs placebo, margin 11): 6.8 | Mean Difference Drug Liking Emax, A vs E ([2]; SDX Cl 120 mg vs placebo, margin 11, listed as SDX chloride): not statistically non-inferior | Drug Liking Emax, Median ([2]; SDX Cl 120 mg, bipolar VAS): 53.0 | Feeling Alert/Drowsy Emax, Median ([2]; SDX Cl 120 mg, bipolar VAS): 54.0 | Overall Drug Liking Emax, Median ([2]; SDX Cl 120 mg, bipolar VAS): 50.0 | Take Drug Again Emax, Median ([2]; SDX Cl 120 mg, bipolar VAS): 50.0 | Any Effects Emax, Median ([2]; SDX Cl 120 mg, unipolar VAS): 14.0 | Bad Effects Emax, Median ([2]; SDX Cl 120 mg, unipolar VAS): 0.0 | Feeling High Emax, Median ([2]; SDX Cl 120 mg, unipolar VAS): 7.0 | Good Effects Emax, Mean ([2]; SDX Cl 120 mg, unipolar VAS): 27.0 | Good Effects Emax, Median ([2]; SDX Cl 120 mg, unipolar VAS): 10.0 | Mean Difference Any Effects Emax, B vs E [2]: 20.5 | Mean Difference Bad Effects Emax, B vs E [2]: 8.6 | Mean Difference Feeling Alert/Drowsy Emax, B vs E [2]: 11.2 | Mean Difference Feeling High Emax, B vs E [2]: 18.8 | Mean Difference Good Effects Emax, B vs E [2]: 17.4 | Mean Difference Overall Drug Liking Emax, B vs E [2]: 3.3 | Mean Difference Take Drug Again Emax, B vs E [2]: 1.7 | Mean Difference Any Effects Emax, B vs E ([2]; listed as SDX chloride): statistically higher | Mean Difference Bad Effects Emax, B vs E ([2]; listed as SDX chloride): statistically higher | Mean Difference Feeling Alert/Drowsy Emax, B vs E ([2]; listed as SDX chloride): statistically higher | Mean Difference Feeling High Emax, B vs E ([2]; listed as SDX chloride): statistically higher | Mean Difference Good Effects Emax, B vs E ([2]; listed as SDX chloride): statistically higher | Mean Difference Overall Drug Liking Emax, B vs E ([2]; listed as SDX chloride): not statistically different | Mean Difference Take Drug Again Emax, B vs E ([2]; listed as SDX chloride): not statistically different | Mean Difference Drug Liking Emax, B vs E ([2]; margin 11): 8.3 | Mean Difference Drug Liking Emax, B vs E ([2]; margin 11, listed as SDX chloride): not statistically non-inferior | Mean Difference Any Effects Emax, D vs A [2, 6]: statistically lower | Mean Difference Bad Effects Emax, D vs A [2, 6]: statistically lower | Mean Difference Feeling Alert/Drowsy Emax, D vs A [2, 6]: statistically lower | Mean Difference Feeling High Emax, D vs A [2, 6]: statistically lower | Mean Difference Good Effects Emax, D vs A [2, 6]: statistically lower | Mean Difference Overall Drug Liking Emax, D vs A [2, 6]: about 14.9 | Mean Difference Take Drug Again Emax, D vs A [2, 6]: statistically lower | Mean Difference Overall Drug Liking Emax, D vs A ([2]; phentermine HCl 60 mg vs SDX Cl 120 mg, listed as SDX chloride): statistically lower | Mean Difference Drug Liking Emax, D vs A ([2]; phentermine HCl 60 mg vs SDX Cl 120 mg, margin 10): at least 15.5 | Mean Difference Drug Liking Emax, D vs A ([2]; phentermine HCl 60 mg vs SDX Cl 120 mg, margin 10, listed as SDX chloride): statistically significantly lower | Mean Difference Any Effects Emax, D vs B [2, 7]: statistically lower | Mean Difference Bad Effects Emax, D vs B [2, 7]: statistically similar | Mean Difference Feeling Alert/Drowsy Emax, D vs B [2, 7]: statistically lower | Mean Difference Feeling High Emax, D vs B [2, 7]: statistically lower | Mean Difference Good Effects Emax, D vs B [2, 7]: statistically lower | Mean Difference Overall Drug Liking Emax, D vs B [2, 7]: about 15.3 | Mean Difference Take Drug Again Emax, D vs B [2, 7]: 15.4 | Mean Difference Overall Drug Liking Emax, D vs B [2, 8]: statistically lower | Mean Difference Take Drug Again Emax, D vs B [2, 8]: statistically lower | Mean Difference Drug Liking Emax, D vs B ([2]; phentermine HCl 60 mg vs SDX Cl 240 mg, margin 10): at least 14.0 | Mean Difference Drug Liking Emax, D vs B ([2]; phentermine HCl 60 mg vs SDX Cl 240 mg, margin 10, listed as SDX chloride): not statistically greater than 10 points
